Results: patent publication US12441703B2, “Carboxamides as modulators of sodium channels” (VERTEX PHARMACEUTICALS INCORPORATED, priority 2019, dated 2025)

target: human NaV 1.8 (Homo sapiens, UniProt Q9Y5Y9); test: E-VIPR assay for detecting and measuring NaV inhibition properties; type: cell-based; details: E-VIPR assay conducted in the presence of human serum; HEK cells expressing truncated human NaV 1.8
Method in brief: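 HEK cells with truncated human NaV1.8 plus KIR2.1 BacMam, hexyl dye loaded 20 min, compound 30 min at room temperature, 11-point 3-fold series […], 0.625% DMSO, with or without human serum. E-VIPR biphasic stimulation at 10 Hz for 10 s; membrane-potential response read as normalized coumarin/oxonol ratio.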

Sequence of human NaV 1.8 (Q9Y5Y9 whole entry, looked up, the tested form may be a part): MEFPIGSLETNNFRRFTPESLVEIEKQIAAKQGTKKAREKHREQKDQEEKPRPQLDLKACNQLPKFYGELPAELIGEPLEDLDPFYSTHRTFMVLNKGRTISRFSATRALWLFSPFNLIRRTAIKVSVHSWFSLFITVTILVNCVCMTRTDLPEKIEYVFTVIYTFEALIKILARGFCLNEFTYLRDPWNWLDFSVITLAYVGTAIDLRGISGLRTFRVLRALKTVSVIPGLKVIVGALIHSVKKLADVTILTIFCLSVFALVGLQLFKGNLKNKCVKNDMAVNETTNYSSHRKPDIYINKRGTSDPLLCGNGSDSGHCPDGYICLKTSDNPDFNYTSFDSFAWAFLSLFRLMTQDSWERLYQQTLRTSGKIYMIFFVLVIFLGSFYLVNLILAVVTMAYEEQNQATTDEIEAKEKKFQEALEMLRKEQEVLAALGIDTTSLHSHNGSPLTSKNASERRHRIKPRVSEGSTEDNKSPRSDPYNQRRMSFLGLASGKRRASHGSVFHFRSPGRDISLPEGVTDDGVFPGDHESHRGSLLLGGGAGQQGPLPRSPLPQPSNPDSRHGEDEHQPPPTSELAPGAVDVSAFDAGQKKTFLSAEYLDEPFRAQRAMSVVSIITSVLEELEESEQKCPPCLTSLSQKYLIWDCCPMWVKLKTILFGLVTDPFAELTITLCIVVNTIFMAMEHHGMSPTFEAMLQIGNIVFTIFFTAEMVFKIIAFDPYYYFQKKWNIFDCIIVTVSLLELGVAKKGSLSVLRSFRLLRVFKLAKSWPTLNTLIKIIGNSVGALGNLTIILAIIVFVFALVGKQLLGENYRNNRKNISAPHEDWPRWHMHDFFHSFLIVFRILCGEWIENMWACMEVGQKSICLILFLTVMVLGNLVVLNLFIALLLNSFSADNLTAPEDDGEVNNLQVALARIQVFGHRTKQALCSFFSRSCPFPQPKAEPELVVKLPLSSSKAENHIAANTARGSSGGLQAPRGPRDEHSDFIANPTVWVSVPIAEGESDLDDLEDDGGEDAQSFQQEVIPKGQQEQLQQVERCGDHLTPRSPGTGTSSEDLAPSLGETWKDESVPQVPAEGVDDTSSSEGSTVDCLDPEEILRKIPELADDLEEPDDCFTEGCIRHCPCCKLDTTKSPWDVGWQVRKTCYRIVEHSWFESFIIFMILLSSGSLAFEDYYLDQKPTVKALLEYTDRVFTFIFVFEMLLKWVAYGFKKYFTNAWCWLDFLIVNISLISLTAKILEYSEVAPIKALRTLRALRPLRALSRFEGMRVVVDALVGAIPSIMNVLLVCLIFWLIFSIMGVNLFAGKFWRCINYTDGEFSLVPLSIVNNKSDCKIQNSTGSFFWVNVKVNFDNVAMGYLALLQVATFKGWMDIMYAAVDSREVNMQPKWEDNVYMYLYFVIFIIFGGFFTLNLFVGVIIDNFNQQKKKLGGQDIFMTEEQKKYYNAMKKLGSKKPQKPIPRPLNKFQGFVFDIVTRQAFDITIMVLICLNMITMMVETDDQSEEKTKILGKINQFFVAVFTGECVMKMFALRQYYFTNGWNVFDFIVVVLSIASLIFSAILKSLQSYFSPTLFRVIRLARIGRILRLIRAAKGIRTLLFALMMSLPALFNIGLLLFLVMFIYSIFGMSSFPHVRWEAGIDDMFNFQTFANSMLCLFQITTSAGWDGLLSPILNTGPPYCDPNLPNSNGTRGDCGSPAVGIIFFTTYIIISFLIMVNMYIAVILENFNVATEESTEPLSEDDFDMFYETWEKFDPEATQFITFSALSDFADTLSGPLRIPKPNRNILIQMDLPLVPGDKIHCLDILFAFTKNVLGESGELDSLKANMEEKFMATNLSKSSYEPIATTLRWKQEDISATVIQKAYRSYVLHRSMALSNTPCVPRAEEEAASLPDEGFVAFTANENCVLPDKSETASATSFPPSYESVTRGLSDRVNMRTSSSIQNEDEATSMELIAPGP

| Compound | IC50 [nM] |
| --- | --- |
| COc1cc(OC(F)(F)F)ccc1Oc1ccc(-c2ccccc2)c(F)c1C(=O)Nc1ccnc(C(N)=O)c1 [Compound 177, 4-[[2-fluoro-6-[2-methoxy-4-(trifluoromethoxy)phenoxy]-3-phenyl-benzoyl]amino]pyridine-2-carboxamide] | 20 |

same assay, conditions: E-VIPR assay conducted in the presence of human serum; HEK cells expressing truncated human NaV 1.8; read-out: IC50

| IC50 [nM] | Compound |
| --- | --- |
| 3.9 | Cc1c(Oc2ccc(C(F)(F)F)c(F)c2C(=O)Nc2ccnc(C(N)=O)c2)ccc(OC(F)(F)F)c1F [Compound 293, 4-[[2-Fluoro-6-[3-Fluoro-2-Methyl-4-(Trifluoromethoxy)Phenoxy]-3-(Trifluoromethyl)Benzoyl]Amino]Pyridine-2-Carboxamide] |
| 8 | COc1cc(OC(F)(F)F)ccc1Oc1ccc(C2CCC2)c(C)c1C(=O)Nc1ccnc(C(N)=O)c1 [Compound 257, 4-[[3-cyclobutyl-6-[2-methoxy-4-(trifluoromethoxy)phenoxy]-2-methyl-benzoyl]amino]pyridine-2-carboxamide] |
| 1400 | COc1ccc(Oc2ccc(C(F)(F)F)c(C)c2C(=O)Nc2ccc(C(N)=O)nc2)c(Cl)c1 [Compound 235, 5-[[6-(2-chloro-4-methoxy-phenoxy)-2-methyl-3-(trifluoromethyl)benzoyl]amino]pyridine-2-carboxamide] |
| 6.5 | COc1c(Oc2ccc(C(F)(F)F)c(C)c2C(=O)Nc2cnc(C(N)=O)nc2)ccc(OC(F)(F)F)c1F [Compound 314, 5-[[6-[3-fluoro-2-methoxy-4-(trifluoromethoxy)phenoxy]-2-methyl-3-(trifluoromethyl)benzoyl]amino]pyrimidine-2-carboxamide] |
| 68 | Cc1c(C(F)(F)F)ccc(Oc2ccc(F)c(F)c2F)c1C(=O)Nc1ccnc(C(N)=O)c1 [Compound 140, 4-[[2-methyl-3-(trifluoromethyl)-6-(2,3,4-trifluorophenoxy)benzoyl]amino]pyridine-2-carboxamide] |
| 1500 | Cc1c(C(F)(F)F)ccc(Oc2ccc(F)cc2Cl)c1C(=O)Nc1ccc(C(N)=O)nc1 [Compound 190, 5-[[6-(2-chloro-4-fluoro-phenoxy)-2-methyl-3-(trifluoromethyl)benzoyl]amino]pyridine-2-carboxamide] |
| 15.1 | COc1c(Oc2cc(C(F)(F)F)cc(F)c2C(=O)Nc2cc(C(N)=O)ncc2C)ccc(OC(F)(F)F)c1F [Compound 318, 4-[[2-fluoro-6-[3-fluoro-2-methoxy-4-(trifluoromethoxy)phenoxy]-4-(trifluoromethyl)benzoyl]amino]-5-methyl-pyridine-2-carboxamide] |
| 395 | COc1cc(OC(F)(F)F)ccc1Oc1cc(C2CCC(C(F)(F)F)CC2)ccc1C(=O)Nc1ccnc(C(N)=O)c1 (single isomer, unassigned) [158 (second diastereomer), 4-[[2-[2-methoxy-4-(trifluoromethoxy)phenoxy]-4-[4-(trifluoromethyl)cyclohexyl]benzoyl]amino]pyridine-2-carboxamide] |
| 490 | NC(=O)c1ccc(NC(=O)c2c(Oc3ccc(F)cc3Cl)ccc(C(F)(F)F)c2F)cn1 [Compound 176, 5-[[6-(2-chloro-4-fluoro-phenoxy)-2-fluoro-3-(trifluoromethyl)benzoyl]amino]pyridine-2-carboxamide] |
| 230 | COc1cc(OC(F)(F)F)ccc1Oc1cc(-c2ccc(F)cc2)cc(F)c1C(=O)Nc1ccc(C(N)=O)nc1 [Compound 170, 5-[[2-fluoro-4-(4-fluorophenyl)-6-[2-methoxy-4-(trifluoromethoxy)phenoxy]benzoyl]amino]pyridine-2-carboxamide] |
| > 3000 | NC(=O)c1cc(NC(=O)c2c(Oc3cccc(C4CCCCC4)c3)ccc(C(F)(F)F)c2F)ccn1 [Compound 40, 4-[[6-(3-cyclohexylphenoxy)-2-fluoro-3-(trifluoromethyl)benzoyl]amino]pyridine-2-carboxamide] |
| 150 | COc1cc(OC(F)(F)F)ccc1Oc1ccc(C(F)(F)F)c(F)c1C(=O)Nc1cc(C(N)=O)ncn1 [Compound 355, 6-[[2-fluoro-6-[2-methoxy-4-(trifluoromethoxy)phenoxy]-3-(trifluoromethyl)benzoyl]amino]pyrimidine-4-carboxamide] |
| 29 | [2H]C([2H])([2H])Oc1cc(OC(F)(F)F)ccc1Oc1cc(C2=CCOC2)cc(F)c1C(=O)Nc1ccnc(C(N)=O)c1 [Compound 1004, 4-[[4-(2,5-dihydrofuran-3-yl)-2-fluoro-6-[2-(trideuteriomethoxy)-4-(trifluoromethoxy)phenoxy]benzoyl]amino]pyridine-2-carboxamide] |
| 1000 | COc1cc(Oc2ccc(C(F)(F)F)c(F)c2C(=O)Nc2ccnc(C(N)=O)c2)ccc1F [Compound 21, 4-[[2-fluoro-6-(4-fluoro-3-methoxy-phenoxy)-3-(trifluoromethyl)benzoyl]amino]pyridine-2-carboxamide] |
| 12 | COc1cc(Oc2ccc(F)c(F)c2OC)c(C(=O)Nc2ccnc(C(N)=O)c2)c(F)c1C [Compound 372, 4-[[6-(3,4-difluoro-2-methoxy-phenoxy)-2-fluoro-4-methoxy-3-methyl-benzoyl]amino]pyridine-2-carboxamide] |
| 19 | COc1c(Oc2ccc(F)c(F)c2C(=O)Nc2ccnc(C(N)=O)c2)ccc(OC(F)(F)F)c1F [Compound 303, 4-[[2,3-difluoro-6-[3-fluoro-2-methoxy-4-(trifluoromethoxy)phenoxy]benzoyl]amino]pyridine-2-carboxamide] |

| IC50 [nM] | Compound |
| --- | --- |
| 4 | COc1cc(OC(F)(F)F)ccc1Oc1ccc(OC(F)(F)F)c(F)c1C(=O)Nc1ccnc(C(N)=O)c1 [Compound 280, 4-[[2-Fluoro-6-[2-Methoxy-4-(Trifluoromethoxy)Phenoxy]-3-(Trifluoromethoxy)Benzoyl]Amino]Pyridine-2-Carboxamide] |
| 13 | COc1cc(Cl)ccc1Oc1ccc(C(F)(F)F)c(F)c1C(=O)Nc1ccnc(C(N)=O)c1 [Compound 43, 4-[[6-(4-chloro-2-methoxy-phenoxy)-2-fluoro-3-(trifluoromethyl)benzoyl]amino]pyridine-2-carboxamide] |
| > 3000 | NC(=O)c1cc(NC(=O)c2c(Oc3c(F)ccc(F)c3C3CC3)ccc(C(F)(F)F)c2F)ccn1 [Compound 340, 4-[[6-(2-cyclopropyl-3,6-difluoro-phenoxy)-2-fluoro-3-(trifluoromethyl)benzoyl]amino]pyridine-2-carboxamide] |
| 13 | COc1c(Oc2cc3c(cc2C(=O)Nc2ccnc(C(N)=O)c2)OC(F)(F)O3)ccc(OC(F)(F)F)c1F [Compound 311, 4-[[2,2-difluoro-6-[3-fluoro-2-methoxy-4-(trifluoromethoxy)phenoxy]-1,3-benzodioxole-5-carbonyl]amino]pyridine-2-carboxamide] |
| 17.4 | COc1cc(OC(F)(F)F)ccc1Oc1cc(OC)c(C(F)(F)F)c(F)c1C(=O)Nc1ccc(C(N)=O)nc1 [Compound 353, 5-[[2-fluoro-4-methoxy-6-[2-methoxy-4-(trifluoromethoxy)phenoxy]-3-(trifluoromethyl)benzoyl]amino]pyridine-2-carboxamide] |
| 410 | COc1cc(F)ccc1Oc1cc(C(F)(F)F)nc(C)c1C(=O)Nc1ccnc(C(N)=O)c1 [Compound 351, N-(2-carbamoyl-4-pyridyl)-4-(4-fluoro-2-methoxy-phenoxy)-2-methyl-6-(trifluoromethyl)pyridine-3-carboxamide] |
| 33 | COc1cc(OC(F)(F)F)ccc1Oc1cc(C2=CC3CCC2C3)cc(F)c1C(=O)Nc1ccnc(C(N)=O)c1 (centres unmarked) [Compound 1014, 4-[[4-(2-bicyclo[2.2.1]hept-2-enyl)-2-fluoro-6-[2-methoxy-4-(trifluoromethoxy)phenoxy]benzoyl]amino]pyridine-2-carboxamide] |
| 960 | COc1cc(OC(F)(F)F)ccc1Oc1cc(C2CCC(C(F)(F)F)CC2)ccc1C(=O)Nc1ccnc(C(N)=O)c1 (single isomer, unassigned) [158 (first diastereomer), 4-[[2-[2-methoxy-4-(trifluoromethoxy)phenoxy]-4-[4-(trifluoromethyl)cyclohexyl]benzoyl]amino]pyridine-2-carboxamide] |
| 1.6 | COc1c(Oc2cc(C(F)(F)F)c(OC)c(F)c2C(=O)Nc2ccnc(C(N)=O)c2)ccc(OC(F)(F)F)c1F [Compound 325, 4-[[2-fluoro-6-[3-fluoro-2-methoxy-4-(trifluoromethoxy)phenoxy]-3-methoxy-4-(trifluoromethyl)benzoyl]amino]pyridine-2-carboxamide] |
| 590 | COc1cc(OC(F)(F)F)ccc1Oc1ccc(C(F)(F)F)c(OCCC2CC2)c1C(=O)Nc1ccnc(C(N)=O)c1 [Compound 1028] |
| 1200 | CC(C)Oc1ccc(Oc2cccc(C(F)(F)F)c2C(=O)Nc2ccnc(C(N)=O)c2)cc1F [Compound 74, 4-[[2-(3-fluoro-4-isopropoxy-phenoxy)-6-(trifluoromethyl)benzoyl]amino]pyridine-2-carboxamide] |
| 1500 | COc1cc(F)ccc1Oc1ccc(C(F)(F)F)c(C)c1C(=O)Nc1ccc(C(N)=O)nc1 [Compound 232, 5-[[6-(4-fluoro-2-methoxy-phenoxy)-2-methyl-3-(trifluoromethyl)benzoyl]amino]pyridine-2-carboxamide] |
| > 3000 | CC(C)Oc1ccc(Oc2cc(C(F)(F)F)ccc2C(=O)Nc2ccnc(C(N)=O)c2)cc1Cl [Compound 108, 4-[[2-(3-chloro-4-isopropoxy-phenoxy)-4-(trifluoromethyl)benzoyl]amino]pyridine-2-carboxamide] |
| 8 | COc1c(Oc2ccc(C(F)(F)F)c(F)c2C(=O)Nc2ccc(C(N)=O)nc2)ccc(OC(F)(F)F)c1F [Compound 209, 5-[[2-fluoro-6-[3-fluoro-2-methoxy-4-(trifluoromethoxy)phenoxy]-3-(trifluoromethyl)benzoyl]amino]pyridine-2-carboxamide] |
| 54 | COc1cc(F)ccc1Oc1ccc(C(F)(F)F)c(C)c1C(=O)Nc1ccnc(C(N)=O)c1 [Compound 137, 4-[[6-(4-fluoro-2-methoxy-phenoxy)-2-methyl-3-(trifluoromethyl)benzoyl]amino]pyridine-2-carboxamide] |
